According to article PMC9848300, “Discovery of novel enasidenib analogues targeting inhibition of mutant isocitrate dehydrogenase 2 as antileukaemic agents” (Journal of Enzyme Inhibition and Medicinal Chemistry, 2023):
Where two headings read alike, the source gives them in different places.

Assays:
COLO 205 = test: NCI 60 antitumor screening (single dose / five doses); format: cell-based; conditions: Homo sapiens
A498 = test: as above; format: cell-based; conditions: Homo sapiens
MDA-MB-468 = test: as above; format: cell-based; conditions: Homo sapiens
EKVX = test: as above; format: cell-based; conditions: Homo sapiens, read-out: Growth inhibition percentage (GI %)
SK-MEL-2 = test: as above; format: cell-based; conditions: Homo sapiens
SK-MEL-5 = test: as above; format: cell-based; conditions: Homo sapiens
IDH2^R140Q = target: T1, IDH2^R140Q (Homo sapiens, UniProt P48735, R140Q); test: biochemical
T1 sequence (P48735 40-452 R140Q): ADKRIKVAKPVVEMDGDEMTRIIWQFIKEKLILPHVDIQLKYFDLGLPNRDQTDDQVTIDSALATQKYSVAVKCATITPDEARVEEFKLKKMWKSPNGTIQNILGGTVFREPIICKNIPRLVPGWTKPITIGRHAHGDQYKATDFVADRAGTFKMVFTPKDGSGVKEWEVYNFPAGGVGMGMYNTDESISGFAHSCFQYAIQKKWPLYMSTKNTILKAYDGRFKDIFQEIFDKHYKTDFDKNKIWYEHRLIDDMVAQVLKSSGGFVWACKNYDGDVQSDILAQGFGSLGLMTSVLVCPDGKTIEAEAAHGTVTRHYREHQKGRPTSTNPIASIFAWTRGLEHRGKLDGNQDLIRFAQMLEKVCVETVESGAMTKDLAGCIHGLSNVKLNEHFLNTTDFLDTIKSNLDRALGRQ

[1] = COLO 205 (colon cancer), single dose 10 μM, read-out: Growth inhibition percentage (GI %)
[2] = A498 (renal cancer), single dose 10 μM, read-out: Growth inhibition percentage (GI %)
[3] = MDA-MB-468 (breast cancer), single dose 10 μM, read-out: Growth inhibition percentage (GI %)
[4] = EKVX (non-small cell lung cancer), single dose 10 μM
[5] = SK-MEL-2 (melanoma), single dose 10 μM, read-out: Growth inhibition percentage (GI %)
[6] = SK-MEL-5 (melanoma), single dose 10 μM, read-out: Growth inhibition percentage (GI %)
[7] = COLO 205, read-out: Growth inhibition percentage (GI %)
[8] = A498, read-out: Growth inhibition percentage (GI %)
[9] = MDA-MB-468, read-out: Growth inhibition percentage (GI %)
[10] = SK-MEL-2, read-out: Growth inhibition percentage (GI %)
[11] = SK-MEL-5, read-out: Growth inhibition percentage (GI %)

SMILES | inhibition at 10 µM (COLO 205; [1]) | inhibition at 10 µM (A498; [2]) | inhibition at 10 µM (MDA-MB-468; [3]) | inhibition at 10 µM (EKVX; [4]) | inhibition at 10 µM (SK-MEL-2; [5]) | inhibition at 10 µM (SK-MEL-5; [6]) | inhibition at 10 µM (COLO 205; [7]) | inhibition at 10 µM (A498; [8]) | inhibition at 10 µM (MDA-MB-468; [9]) | inhibition at 10 µM (EKVX; EKVX) | inhibition at 10 µM (SK-MEL-2; [10]) | inhibition at 10 µM (SK-MEL-5; [11]) | IC50 (IDH2^R140Q)
Brc1ccccc1/C=N/Nc1nc(N/N=C/c2ccccc2Br)nc(N2CCOCC2)n1 [compound 6b, 2,4-Bis[(E)-2-[(2-bromophenyl)methylidene]hydrazin-1-yl]-6-(morpholin-4-yl)-1,3,5-triazine] | 13.9% | 49.8% | 9.74% | 19.8% | 3.71% | 30.4% | – | – | – | – | – | – | –
O=[N+]([O-])c1cccc(/C=N/Nc2nc(N/N=C/c3cccc([N+](=O)[O-])c3)nc(N3CCOCC3)n2)c1 [compound 6f, 2-(Morpholin-4-yl)-4,6-bis[(E)-2-[(3-nitrophenyl)methylidene]hydrazin-1-yl]-1,3,5-triazine] | – | – | – | – | – | – | 44.2% | 13.1% | 1.3% | 11% | 4.93% | 36.9% | –
CN(C)c1ccc(/C=N/Nc2nc(N/N=C/c3ccc(N(C)C)cc3)nc(N3CCOCC3)n2)cc1 [compound 6g, 4-[(1e)-(2-{4-[(E)-2-{[4-(dimethylamino)phenyl]methylidene}hydrazin-1-yl]-6-(morpholin-4-yl)-1,3,5-triazin-2-yl}hydrazin-1-ylidene)methyl]-N,N-dimethylaniline] | -8.37% | – | 2.17% | 4.62% | 1.45% | -0.23% | – | – | – | – | – | – | 336 ± 16.4 nM
Clc1cccc(/C=N/Nc2nc(N/N=C/c3cccc(Cl)c3Cl)nc(N3CCOCC3)n2)c1Cl [compound 6h, 2,4-Bis[(E)-2-[(2,3-Dichlorophenyl)methylidene]hydrazin-1-yl]-6-(morpholin-4-yl)-1,3,5-triazine] | 7.98% | -10.5% | 32.8% | 24.4% | 13.8% | 15.5% | – | – | – | – | – | – | –
O=[N+]([O-])c1cc(/C=N/Nc2nc(N/N=C/c3ccc(Cl)c([N+](=O)[O-])c3)nc(N3CCOCC3)n2)ccc1Cl [compound 6i, 2,4-Bis[(E)-2-[(4-Chloro-3-nitrophenyl)methylidene]hydrazin-1-yl]-6-(morpholin-4-yl)-1,3,5-triazine] | – | – | – | – | – | – | -4.66% | -10.3% | 27.1% | 0.07% | -2.6% | 3.31% | –
Oc1ccc(/C=N/Nc2nc(N/N=C/c3ccc(O)c(O)c3)nc(N3CCOCC3)n2)cc1O [compound 6j, 4-[(1e)-(2-{4-[(E)-2-[(3,4-Dihydroxyphenyl)methylidene]hydrazin-1-yl]-6-(morpholin-4-yl)-1,3,5-triazin-2-yl}hydrazin-1-ylidene)methyl]benzene-1,2-diol] | -7.11% | 2.87% | 6.49% | 5.31% | 3.04% | 2.65% | – | – | – | – | – | – | –
C(=N\Nc1nc(N/N=C/c2ccc3c(c2)OCO3)nc(N2CCOCC2)n1)/c1ccc2c(c1)OCO2 [compound 6k, 2,4-Bis[(E)-2-(2H-1,3-Benzodioxol-5-ylmethylidene)hydrazin-1-yl]-6-(morpholin-4-yl)-1,3,5-triazine] | 40.7% | – | 32.1% | 4.47% | 1.68% | 14% | – | – | – | – | – | – | –
Brc1ccccc1/C=N/Nc1nc(N/N=C/c2ccccc2Br)nc(N2CCCCC2)n1 [compound 7b, 2,4-Bis[(E)-2-[(2-Bromophenyl)methylidene]hydrazin-1-yl]-6-(piperidin-1-yl)-1,3,5-triazine] | -5.18% | – | 12.4% | 4.52% | -1.28% | 5.12% | – | – | – | – | – | – | –
O=[N+]([O-])c1cccc(/C=N/Nc2nc(N/N=C/c3cccc([N+](=O)[O-])c3)nc(N3CCCCC3)n2)c1 [compound 7f, 2,4-Bis[(E)-2-[(3-Nitrophenyl)methylidene]hydrazin-1-yl]-6-(piperidin-1-yl)-1,3,5-triazine] | – | – | – | – | – | – | 24.1% | 18.7% | 26.4% | 34.9% | 36% | 52.4% | –
Clc1cccc(/C=N/Nc2nc(N/N=C/c3cccc(Cl)c3Cl)nc(N3CCCCC3)n2)c1Cl [compound 7h, 2,4-Bis[(E)-2-[(2,3-Dichlorophenyl)methylidene]hydrazin-1-yl]-6-(piperidin-1-yl)-1,3,5-triazine] | 9.72% | 7.46% | 7.19% | 11% | 2.27% | 0.02% | – | – | – | – | – | – | –
O=[N+]([O-])c1cc(/C=N/Nc2nc(N/N=C/c3ccc(Cl)c([N+](=O)[O-])c3)nc(N3CCCCC3)n2)ccc1Cl [compound 7i, 2,4-Bis[(E)-2-[(4-Chloro-3-nitrophenyl)methylidene]hydrazin-1-yl]-6-(piperidin-1-yl)-1,3,5-triazine] | – | – | – | – | – | – | -0.27% | -8.06% | 31.2% | 22% | 37.8% | 48.9% | –
Oc1ccc(/C=N/Nc2nc(N/N=C/c3ccc(O)c(O)c3)nc(N3CCCCC3)n2)cc1O [compound 7j, 4-[(1e)-(2-{4-[(E)-2-[(3,4-Dihydroxyphenyl)methylidene]hydrazin-1-yl]-6-(piperidin-1-yl)-1,3,5-triazin-2-yl}hydrazin-1-ylidene)methyl]benzene-1,2-diol] | -6.39% | -2.84% | 10.2% | 1.58% | 9.62% | 4.85% | – | – | – | – | – | – | –
C(=N\Nc1nc(N/N=C/c2ccc3c(c2)OCO3)nc(N2CCCCC2)n1)/c1ccc2c(c1)OCO2 [compound 7k, 2,4-Bis[(E)-2-(2H-1,3-Benzodioxol-5-ylmethylidene)hydrazin-1-yl]-6-(piperidin-1-yl)-1,3,5-triazine] | 14.1% | 48.3% | 18.4% | 6.27% | -2.84% | 3.15% | – | – | – | – | – | – | –
C/C(=N\Nc1nc(N/N=C(\C)c2ccc([N+](=O)[O-])cc2)nc(N2CCOCC2)n1)c1ccc([N+](=O)[O-])cc1 [compound 8a, 2-(Morpholin-4-yl)-4,6-bis[(E)-2-[1–(4-nitrophenyl)ethylidene]hydrazin-1-yl]-1,3,5-triazine] | – | – | – | – | – | – | 5.21% | 33.9% | 20.4% | 31.9% | 3.61% | 32.9% | –
O=C1Nc2ccc(Cl)cc2/C1=N\Nc1nc(N/N=C2/C(=O)Nc3ccc(Cl)cc32)nc(N2CCOCC2)n1 [compound 8b, (3E)-5-Chloro-3-[2–(4-{2-[(3E)-5-chloro-2-oxo-2,3-dihydro-1H-indol-3-ylidene]hydrazin-1-yl}6-(morpholin-4-yl)-1,3,5-triazin-2-yl)hydrazin-1-ylidene]-2,3-dihydro-1H-indol-2-one] | 51.3% | 78.4% | 76.4% | 14.8% | 34.7% | 53.9% | – | – | – | – | – | – | –
COC(=O)C(Cc1ccccc1)Nc1nc(NC(Cc2ccccc2)C(=O)OC)nc(N2CCOCC2)n1 (stereo not shown) [compound 8c, Methyl 2-({4-[(1-methoxy-1-oxo-3-phenylpropan-2-yl)amino]-6-(morpholin-4-yl)-1,3,5-triazin-2-yl}amino)-3-phenylpropanoate] | -4.56% | -7.4% | -7.75% | -4.54% | -11% | 1.32% | – | – | – | – | – | – | –
O=C(NNc1nc(NNC(=O)c2ccccc2)nc(N2CCOCC2)n1)c1ccccc1 [compound 8d, N'-[4-(morpholin-4-yl)-6-(phenylhydrazido)-1,3,5-triazin-2-yl]benzohydrazide] | -12.9% | -11% | -15.1% | 3.9% | -13.4% | 0.18% | – | – | – | – | – | – | –
